{"source": "patent US9050475B2", "about": "“High SPF sunscreen compositions” (MD SOLARSCIENCES CORP., priority 2010, dated 2015)", "origin": "cited, not measured here", "conditions": "known UV-A or UV-B protection properties of FDA-approved sunscreens", "data": [{"smiles": "CCOCCOC(=O)C=Cc1ccc(OC)cc1", "note": "[Cinoxate, 2-ethoxyethylp-methoxycinnamate]", "values": [{"measurement": "Range Covered", "value": "UV-B (UV-B: 290-320 nm)"}]}, {"smiles": "CC1CC(OC(=O)c2ccccc2O)CC(C)(C)C1", "note": "(stereo not shown) [Homosalate]", "values": [{"measurement": "Range Covered", "value": "UV-B (UV-B: 290-320 nm)"}]}, {"smiles": "CCCCC(CC)COC(=O)c1ccccc1O", "note": "(stereo not shown) [Octisalate, 2-ethylhexyl salicylate]", "values": [{"measurement": "Range Covered", "value": "UV-B (UV-B: 290-320 nm)"}]}, {"smiles": "CCCCC(CC)COC(=O)C(C#N)=C(c1ccccc1)c1ccccc1", "note": "(stereo not shown) [Octocrylene, 2-ethylhexyl-2-cyano-3.3 diphenylacrylate]", "values": [{"measurement": "Range Covered", "value": "UV-B (UV-B: 290-320 nm)"}]}, {"smiles": "COc1ccc(C(=O)c2ccccc2)c(O)c1", "note": "[Oxybenzone]", "values": [{"measurement": "Range Covered", "value": "UV-B, UV-A2"}]}, {"smiles": "CCCCC(CC)COC(=O)c1ccc(N(C)C)cc1", "note": "(stereo not shown) [Padimate O, octyl dimethyl PABA]", "values": [{"measurement": "Range Covered", "value": "UV-B (UV-B: 290-320 nm)"}]}, {"smiles": "COc1cc(O)c(C(=O)c2ccccc2)cc1S(=O)(=O)O", "note": "[Sulisobenzone]", "values": [{"measurement": "Range Covered", "value": "UV-B, UV-A2"}]}]}
